These results are taken from patent US20240408072A1, “COMPOSITION FOR PREVENTING OR TREATING GRAVES' DISEASE COMPRISING COMPOUND CONTAINING AN IMIDAZOPYRIDINE STRUCTURE AS ACTIVE INGREDIENT” (ESGELBIO INC., priority 2021, published 2024).

Entries after “also recorded” stand apart in the source; their conditions may differ. Read-outs that look alike come from different tables or passages of the source.

One test deals with HL-60 MPO (Homo sapiens (Human), UniProt P05164). Briefly: HL-60 MPO inhibition, drugs treated to media. Format: cell-based. How it is done: The screening of compounds for MPO inhibition activity was conducted in three stages.
HL-60 MPO, sequence (P05164 49-745): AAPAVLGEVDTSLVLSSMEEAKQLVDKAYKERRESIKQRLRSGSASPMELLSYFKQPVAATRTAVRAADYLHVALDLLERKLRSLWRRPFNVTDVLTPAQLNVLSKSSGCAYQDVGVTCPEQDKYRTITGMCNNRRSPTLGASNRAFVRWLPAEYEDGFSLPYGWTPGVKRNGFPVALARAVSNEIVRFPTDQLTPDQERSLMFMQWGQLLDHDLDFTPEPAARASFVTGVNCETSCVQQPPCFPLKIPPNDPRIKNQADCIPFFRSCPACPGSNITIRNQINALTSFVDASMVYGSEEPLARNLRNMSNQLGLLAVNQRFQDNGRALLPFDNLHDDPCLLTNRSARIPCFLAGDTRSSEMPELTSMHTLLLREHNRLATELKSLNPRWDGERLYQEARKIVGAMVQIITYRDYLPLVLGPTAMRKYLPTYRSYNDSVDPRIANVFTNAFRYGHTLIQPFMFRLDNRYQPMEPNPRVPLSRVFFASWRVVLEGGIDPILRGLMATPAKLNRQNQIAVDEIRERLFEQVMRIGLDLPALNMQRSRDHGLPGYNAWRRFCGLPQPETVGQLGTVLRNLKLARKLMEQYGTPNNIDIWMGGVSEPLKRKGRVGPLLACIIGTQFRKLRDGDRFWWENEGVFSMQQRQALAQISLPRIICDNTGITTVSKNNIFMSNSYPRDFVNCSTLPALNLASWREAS
A further test deals with Human MPO (Homo sapiens (Human), UniProt P05164). Briefly: Myeloperoxidase (MPO) inhibition IC50 screening. Format: biochemical. The text has this: To discover new therapeutics for the treatment of Graves' disease, the inventors screened compounds for inhibition activity against myeloperoxidase (MPO). The screening process is schematically represented in FIG. 1. Use was made of approximately 7,000 compounds for the screening.
Human MPO, sequence (P05164 49-745): as above

For test [1], the system named is Graves' disease-induced mice. Briefly: Serum thyroxine (T4) in Graves' disease-induced (Ad-TSHR) mice. Format: in vivo, BALB/c mice. The following applies: 10 mg/kg daily for three weeks, abdominal cavity, FIG. 8. On the procedure:
(§1) To create a mouse model with induced Graves' disease, 6-week-old female BALB/c mice were used. The thyroid stimulating hormone receptor (TSHR) expressing adenovirus, Ad-TSHR, was purchased from VectorBuilder (Chicago, USA, www.vectorbuilder.com). […] The virus was injected three times at three-week intervals, totaling nine weeks of injections to induce overexpression of TSHR and thereby cause Graves' disease.
(§2) In the Graves' disease-induced mouse model established in <3-1>, the therapeutic effectiveness of the imidazopyridine scaffold-bearing compounds screened in the present disclosure was evaluated.
(§3) After extracting the thyroid glands from each mouse, the sizes of the thyroids were visually compared, and the concentration of thyroxine (T4) in the blood was analyzed.
After administering drugs for three weeks to mice in which Graves' disease was induced by the Ad-TSHR virus over nine weeks, the serum was isolated to measure the concentration of thyroxine (T4).

The test system of test [2] is TG (thyroglobulin) expression. Briefly: Inhibition of TG expression in SNU760 cells. Format: cell-based. The following applies: 50 uM, SNU760 Human Thyroid cell lines, FIG. 2. On the procedure: (§4) To confirm whether the imidazopyridine scaffold-bearing compounds screened in Example 1 could be used as treatments for Graves' disease, SNU760 Human Thyroid cell lines were treated with various concentrations of each compound and then analyzed their ability to inhibit the expression of TPO (thyroid peroxidase) and TG (thyroglobulin).

In test [3] the test system is Graves' disease-induced mice. Briefly: Thyroid size in Graves' disease-induced (Ad-TSHR) mice. Format: in vivo, BALB/c mice. Particulars: 10 mg/kg daily for three weeks, abdominal cavity, vs Ad-TSHR group, FIG. 7. How it is done: as §1, §2, §3
In test [4] the test system is TPO (thyroid peroxidase) expression. Briefly: Inhibition of TPO expression in SNU760 cells. Format: cell-based. Particulars: 50 uM, SNU760 Human Thyroid cell lines, FIG. 2. How it is done: as §4
In a further test the target is thyroid peroxidase (TPO) (Homo sapiens (Human), UniProt P07202). Briefly: Thyroid peroxidase (TPO) inhibition IC50. Format: biochemical. The following applies: Table 3.
thyroid peroxidase (TPO), sequence (P07202 19-933, species assumed): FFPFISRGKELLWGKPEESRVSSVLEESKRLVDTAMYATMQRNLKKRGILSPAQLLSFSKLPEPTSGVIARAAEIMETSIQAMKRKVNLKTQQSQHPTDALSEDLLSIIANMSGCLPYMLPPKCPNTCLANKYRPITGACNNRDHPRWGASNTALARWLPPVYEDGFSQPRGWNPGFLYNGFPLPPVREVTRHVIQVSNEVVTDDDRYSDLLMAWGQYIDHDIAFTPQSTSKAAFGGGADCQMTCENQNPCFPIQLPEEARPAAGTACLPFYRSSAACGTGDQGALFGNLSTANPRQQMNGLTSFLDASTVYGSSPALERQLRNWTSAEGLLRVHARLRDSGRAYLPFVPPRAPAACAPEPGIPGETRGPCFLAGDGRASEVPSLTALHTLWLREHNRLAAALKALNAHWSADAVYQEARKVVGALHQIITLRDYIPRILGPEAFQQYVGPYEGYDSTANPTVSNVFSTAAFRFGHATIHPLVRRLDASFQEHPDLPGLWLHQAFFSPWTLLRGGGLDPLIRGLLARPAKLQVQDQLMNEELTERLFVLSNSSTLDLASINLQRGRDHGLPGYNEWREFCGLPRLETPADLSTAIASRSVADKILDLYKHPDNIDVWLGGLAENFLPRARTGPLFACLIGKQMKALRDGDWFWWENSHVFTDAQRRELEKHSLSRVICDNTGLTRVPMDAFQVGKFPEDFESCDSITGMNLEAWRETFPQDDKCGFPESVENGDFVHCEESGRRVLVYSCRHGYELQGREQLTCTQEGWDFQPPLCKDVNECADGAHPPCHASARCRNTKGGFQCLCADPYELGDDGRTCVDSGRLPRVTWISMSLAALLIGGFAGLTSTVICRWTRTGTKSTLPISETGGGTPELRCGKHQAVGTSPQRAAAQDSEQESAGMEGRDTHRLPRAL

As to `CC(C)OCCn1c(=S)[nH]c(=O)c2[nH]ccc21` [AZD3241], the “HL-60 MPO Inhibition (%) (treat to media)” value at HL-60 MPO (2nd Screening) is listed as 0%. Also, at HL-60 MPO (HL-60, 3rd Screening, 25 uM, read-out: HL-60 MPO Inhibition (%) (25 uM of Drugs are treated to media)), the inhibition at 25 µM was found to be 0%. Further, the IC50 was 0.021 µM at Human MPO (Chemical Library 2nd Screening, MPO, read-out: IC50) and 0.021 µM on Human MPO (Chemical Library 3rd Screening, read-out: IC50 (uM) (Human MPO)).

In the case of `Cc1ccc2nc(-c3cccnc3)c(Nc3ccc4c(c3)OCO4)n2c1` [NE-2-6, N-(2H-1,3-BENZODIOXOL-5-YL)-6-METHYL-2-(PYRIDIN-3-YL) IMIDAZO [1,2-A]PYRIDIN-3-AMINE], the “serum thyroxine (T4) concentration” value in test [1] is “significant reduction; also recorded: more effective”. Further, the “inhibition of the expression of TG” value in test [2] is around 100%. The “thyroid size (visually compared)” value in test [3] was “effectively reduced thyroid sizes; also recorded: nearly restored to normal levels”. Further, in test [4], the “inhibition of the expression of TPO” value was around 100%.

With `COc1ccc(-c2nc3cc(C)ccn3c2Nc2ccc3c(c2)OCO3)cc1` [NE-2-7, N-(2H-1,3-BENZODIOXOL-5- YL)-2-(4-METHOXYPHENYL)-7- METHYLIMIDAZO[1,2- A]PYRIDIN-3-AMINE], on thyroid peroxidase (TPO), the IC50 turned out to be 0.02 µM.

As usually defined, the inhibition is the change of the read-out against control, counted positive when it falls. By IC50 is commonly meant the concentration at which inhibition is half-maximal.
